Measurements reported in US20260022143A1, “Cyclic Peptide Inhibitors of IL-23” (JANSSEN PHARMACEUTICA NV, priority 2022, published 2026).
Starred links: 1 amine or outer side, 2 acyl side, 3 side chain; linkers in the order of their positions; H or OH if unused. Positions of bridges follow the written chain, without caps; N, C: chain ends. Non-standard residues stand in square brackets, D forms with d. Residues, ends and D or L forms follow the SMILES beside them. *: point of attachment. Trp(7-(3-AcNH-Ph)) = CC(=O)Nc1cccc(-c2cccc3c(C[C@H](N)C(=O)O)c[nH]c23)c1; X36 = C[N+]1(CCCc2cn(-c3ccc(C[C@H](N[*:1])C(=O)[*:2])cc3)nn2)CCOCC1; X13 = C[N+]1(Cc2cn(-c3ccc(C[C@H](N[*:1])C(=O)[*:2])cc3)nn2)CCOCC1; Me3N+(CH2)2O(CH2)2O(CH2)2CO = C[N+](C)(C)CCOCCOCCC(=O)*; CH2CH2OCH2CH2OCH2CH2NMe3+ = C[N+](C)(C)CCOCCOCC*; Trp(7-Me) = Cc1cccc2c(C[C@H](N)C(=O)O)c[nH]c12; dLys(Me3) = C[N+](C)(C)CCCC[C@@H](N)C(=O)O; 3Pal(5-Me) = Cc1cncc(C[C@H](N)C(=O)O)c1; 2Nal = N[C@@H](Cc1ccc2ccccc2c1)C(=O)O; AEF = NCCOc1ccc(C[C@H](N)C(=O)O)cc1; 3Pal = N[C@@H](Cc1cccnc1)C(=O)O; Ethyl(2-guanidino) = N=C(N)NCC*; Lys(Me) = CNCCCC[C@H](N)C(=O)O; Pen = CC(C)(S)[C@H](N)C(=O)O; X8 = C[N+](C)(C)CCCCCCCC*; Thp = NC1(C(=O)O)CCOCC1; X3 = C[N+](C)(C)CCCCC*; Sar = CNCC(=O)O

Test: Exposed Polar Surface Area (EPSA)
Assay type: physicochemical
Details: SFC on Chirex 3014 column; sample 1 mM DMSO stock; read-out: EPSA
Summary of the method: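 Retention-based polarity: supercritical CO2 with 20 mM ammonium formate in MeOH (5–60%, 20%/min), Chirex 3014 column, 35 °C. Calibrated against 8 standards to give EPSA (Å^2); each sample measured twice.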

Compound	EPSA [A^2]
CC(=O)NCCCC[C@@H]1NC(=O)[C@H](Cc2c[nH]c3c(C)cccc23)NC(=O)[C@H]([C@@H](C)O)NC(=O)[C@H](CC(N)=O)NC(=O)[C@@H](NC(C)=O)C(C)(C)SSC(C)(C)[C@@H](C(=O)N[C@@H](Cc2ccc(-n3cc(CCC[N+]4(C)CCOCC4)nn3)cc2)C(=O)N[C@@H](Cc2ccc3ccccc3c2)C(=O)NC2(C(=O)N[C@@H](CCC(=O)O)C(=O)N[C@@H](CC(N)=O)C(=O)N[C@@H](Cc3cccnc3)C(=O)N(C)CC(N)=O)CCOCC2)NC1=O [compound 453] (Ac-[Pen]NT[Trp(7-Me)]K(Ac)[Pen][X36][2Nal][Thp]EN[3Pal][Sar]-NH2; disulfide 1-6)	173
CC(=O)NCCCC[C@@H]1NC(=O)[C@H](Cc2c[nH]c3c(C)cccc23)NC(=O)[C@H]([C@@H](C)O)NC(=O)[C@H](CC(N)=O)NC(=O)[C@@H](NC(C)=O)C(C)(C)SSC(C)(C)[C@@H](C(=O)N[C@@H](Cc2ccc(OCCCCCCCC[N+](C)(C)C)cc2)C(=O)N[C@@H](Cc2ccc3ccccc3c2)C(=O)NC2(C(=O)N[C@@H](CCC(=O)O)C(=O)N[C@@H](CC(N)=O)C(=O)N[C@@H](Cc3cccnc3)C(=O)N(C)CC(N)=O)CCOCC2)NC1=O [compound 457] (Ac-[Pen]NT[Trp(7-Me)]K(Ac)[Pen]Y(X8)[2Nal][Thp]EN[3Pal][Sar]-NH2; disulfide 1-6 (inferred))	163
CC(=O)NCCCC[C@H](NC(=O)[C@H](CCC(=O)O)NC(=O)C1(NC(=O)[C@H](Cc2ccc3ccccc3c2)NC(=O)[C@H](Cc2ccc(-n3cc(C[N+]4(C)CCOCC4)nn3)cc2)NC(=O)[C@H]2NC(=O)[C@H](CCCCNC(C)=O)NC(=O)[C@H](Cc3c[nH]c4c(C)cccc34)NC(=O)[C@H]([C@@H](C)O)NC(=O)[C@H](CC(N)=O)NC(=O)[C@@H](NC(C)=O)C(C)(C)SSC2(C)C)CCOCC1)C(=O)N[C@@H](Cc1cccnc1)C(=O)N(C)CC(N)=O [compound 460] (Ac-[Pen]NT[Trp(7-Me)]K(Ac)[Pen][X13][2Nal][Thp]EK(Ac)[3Pal][Sar]-NH2; disulfide 1-6)	167
CC(=O)N(C)CCCC[C@H](NC(=O)[C@H](Cc1c[nH]c2ccccc12)NC(=O)[C@H](Cc1ccc2ccccc2c1)NC(=O)[C@H](Cc1ccc(OCCOCCOCC[N+](C)(C)C)cc1)NC(=O)[C@H]1NC(=O)[C@H](Cc2c[nH]c3ccccc23)NC(=O)[C@H](Cc2c[nH]c3c(C)cccc23)NC(=O)[C@H]([C@@H](C)O)NC(=O)[C@H](Cc2c[nH]c3ccccc23)NC(=O)[C@@H](NC(=O)CCOCCOCC[N+](C)(C)C)C(C)(C)SSC1(C)C)C(=O)N[C@@H](CC(N)=O)C(=O)N[C@@H](Cc1cccnc1)C(=O)N(C)CC(=O)N(C)C [compound 465, cPEG3aCO-Pen(3)-W-T-7MeW-W-Pen(3)-APEG3f-2Nal-W-K(NMeAc)-N-3Pya-Sar-CON(Me)2] ({Me3N+(CH2)2O(CH2)2O(CH2)2CO}-[Pen]WT[Trp(7-Me)]W[Pen]Y(CH2CH2OCH2CH2OCH2CH2NMe3+)[2Nal]W[Lys(Me)](Ac)N[3Pal][Sar]-NMe2; disulfide 1-6)	176
CC(=O)NCCCC[C@@H]1NC(=O)[C@H](Cc2c[nH]c3c(C)cccc23)NC(=O)[C@H]([C@@H](C)O)NC(=O)[C@H](CC(N)=O)NC(=O)[C@@H](NC(=O)[C@@H](CCCC[N+](C)(C)C)NC(C)=O)C(C)(C)SSC(C)(C)[C@@H](C(=O)N[C@@H](Cc2ccc(OCCN)cc2)C(=O)N[C@@H](Cc2ccc3ccccc3c2)C(=O)NC2(C(=O)N[C@@H](CCC(=O)O)C(=O)N[C@@H](CC(N)=O)C(=O)N[C@@H](Cc3cncc(C)c3)C(=O)N(C)CC(N)=O)CCOCC2)NC1=O [compound 474] (Ac-[dLys(Me3)][Pen]NT[Trp(7-Me)]K(Ac)[Pen][AEF][2Nal][Thp]EN[3Pal(5-Me)][Sar]-NH2; disulfide 2-7)	185
CC(=O)NCCCC[C@@H]1NC(=O)[C@H](Cc2c[nH]c3c(C)cccc23)NC(=O)[C@H]([C@@H](C)O)NC(=O)[C@H](CC(N)=O)NC(=O)[C@H](NC(C)=O)CSSC[C@@](C)(C(=O)N[C@@H](Cc2ccc(OCCCCC[N+](C)(C)C)cc2)C(=O)N[C@@H](Cc2ccc3ccccc3c2)C(=O)NC2(C(=O)N[C@@H](CCCCNC(C)=O)C(=O)N[C@@H](CC(N)=O)C(=O)N[C@@H](Cc3cccnc3)C(=O)N(C)CC(N)=O)CCOCC2)NC1=O [compound 478, MeCO-C(3)-N-T-7MeW-K(Ac)-aMeC(3)-TMAPF-2Nal-THP-K(Ac)-N-3Pya-Sar-CONH2]	164
CC(=O)NCCCC[C@@H]1NC(=O)[C@H](Cc2c[nH]c3c(-c4cccc(NC(C)=O)c4)cccc23)NC(=O)[C@H]([C@@H](C)O)NC(=O)[C@H](CC(N)=O)NC(=O)[C@@H](NC(=O)[C@@H](CCCC[N+](C)(C)C)NC(C)=O)C(C)(C)SSC(C)(C)[C@@H](C(=O)N[C@@H](Cc2ccc(OCCNC(=N)N)cc2)C(=O)N[C@@H](Cc2ccc3ccccc3c2)C(=O)NC2(C(=O)N[C@@H](CCC(=O)O)C(=O)N[C@@H](CC(N)=O)C(=O)N[C@@H](Cc3cncc(C)c3)C(=O)N(C)CC(N)=O)CCOCC2)NC1=O [compound 480, MeCO-k(Me)3-Pen(3)-N-T-7(3NAcPh)W-K(Ac)-Pen(3)-AEF(G)-2Nal-THP-E-N-5MePyridinAla-Sar-CONH2] (Ac-[dLys(Me3)][Pen]NT[Trp(7-(3-AcNH-Ph))]K(Ac)[Pen]Y(Ethyl(2-guanidino))[2Nal][Thp]EN[3Pal(5-Me)][Sar]-NH2; disulfide 2-7)	198
CC(=O)NCCCC[C@@H]1NC(=O)[C@H](Cc2c[nH]c3c(-c4cccc(NC(C)=O)c4)cccc23)NC(=O)[C@H]([C@@H](C)O)NC(=O)[C@H](CC(N)=O)NC(=O)[C@@H](NC(C)=O)C(C)(C)SSC(C)(C)[C@@H](C(=O)N[C@@H](Cc2ccc(OCCNC(=N)N)cc2)C(=O)N[C@@H](Cc2ccc3ccccc3c2)C(=O)NC2(C(=O)N[C@@H](CCCCN(C)C(C)=O)C(=O)N[C@@H](CC(N)=O)C(=O)N[C@@H](Cc3cncc(C)c3)C(=O)N(C)CC(N)=O)CCOCC2)NC1=O [compound 482, MeCO-Pen(3)-N-T-7(3NAcPh)W-K(Ac)-Pen(3)-AEF(G)-2Nal-THP-K(NMeAc)-N-5MePyridinAla-Sar-CONH2]	180
CC(=O)N(C)CCCC[C@@H]1NC(=O)[C@H](Cc2c[nH]c3c(C)cccc23)NC(=O)[C@H]([C@@H](C)O)NC(=O)[C@H](CC(=O)N(C)C)NC(=O)[C@@H](NC(=O)CCOCCOCC[N+](C)(C)C)C(C)(C)SSC[C@@H](C(=O)N[C@@H](Cc2ccc(OCCCCC[N+](C)(C)C)cc2)C(=O)N[C@@H](Cc2ccc3ccccc3c2)C(=O)NC2(C(=O)N[C@@H](CCCCN(C)C(C)=O)C(=O)N[C@@H](CC(N)=O)C(=O)N[C@@H](Cc3cccnc3)C(=O)N(C)CC(=O)N(C)C)CCOCC2)NC1=O [compound 485, cPEG3aCO-Pen(3)-N(N(Me)2)-T-7MeW-K(NMeAc)-C(3)-TMAPF-2Nal-THP-K(NMeAc)-N-3Pya-Sar-CON(Me)2] ({Me3N+(CH2)2O(CH2)2O(CH2)2CO}-[Pen]D(NMe2)T[Trp(7-Me)][Lys(Me)](Ac)CY(X3)[2Nal][Thp][Lys(Me)](Ac)N[3Pal][Sar]-NMe2; disulfide 1-6)	163
CC(=O)NCCCC[C@@H]1NC(=O)[C@H](Cc2c[nH]c3c(C)cccc23)NC(=O)[C@H]([C@@H](C)O)NC(=O)[C@H](CC(N)=O)NC(=O)[C@@H](NC(=O)COCCOCCNC(=O)COCCOCCNC(=O)COc2ccc(-c3ccc(F)cc3F)cc2C(=O)O)C(C)(C)SSC(C)(C)[C@@H](C(=O)N[C@@H](Cc2ccc(OCCCCC[N+](C)(C)C)cc2)C(=O)N[C@@H](Cc2ccc3ccccc3c2)C(=O)NC2(C(=O)N[C@@H](CCCCN(C)C(C)=O)C(=O)N[C@@H](CC(N)=O)C(=O)N[C@@H](Cc3cccnc3)C(=O)N(C)CC(N)=O)CCOCC2)NC1=O [compound 490, DFNPEG2PEG2CO-Pen(3)-N-T-7MeW-K(Ac)-Pen(3)-TMAPF-2Nal-THP-K(Ac)-N-3Pya-Sar-CONH2]	182
CC(=O)N(C)CCCC[C@@H]1NC(=O)[C@H](Cc2c[nH]c3c(C)cccc23)NC(=O)[C@H](CC(C)C)NC(=O)[C@H](CC(=O)N(C)C)NC(=O)[C@@H](NC(=O)CCOCCOCC[N+](C)(C)C)C(C)(C)SSC(C)(C)[C@@H](C(=O)N[C@@H](Cc2ccc(OCCCCC[N+](C)(C)C)cc2)C(=O)N[C@@H](Cc2ccc3ccccc3c2)C(=O)NC2(C(=O)N[C@@H](CCCCN(C)C(C)=O)C(=O)N[C@@H](CC(N)=O)C(=O)N[C@@H](Cc3cccnc3)C(=O)N(C)CC(=O)N(C)C)CCOCC2)NC1=O [compound 493, cPEG3aCO-Pen(3)-N(N(Me)2)-L-7MeW-K(NMeAc)-Pen(3)-TMAPF-2Nal-THP-K(NMeAc)-N-3Pya-Sar-CON(Me)2] ({Me3N+(CH2)2O(CH2)2O(CH2)2CO}-[Pen]D(NMe2)L[Trp(7-Me)][Lys(Me)](Ac)[Pen]Y(X3)[2Nal][Thp][Lys(Me)](Ac)N[3Pal][Sar]-NMe2; disulfide 1-6)	132
CC(=O)N(C)CCCC[C@@H]1NC(=O)[C@H](Cc2c[nH]c3c(C)cccc23)NC(=O)[C@H]([C@@H](C)O)NC(=O)[C@H](CC(C)C)NC(=O)[C@@H](NC(=O)CCOCCOCC[N+](C)(C)C)C(C)(C)SSC(C)(C)[C@@H](C(=O)N[C@@H](Cc2ccc(OCCCCC[N+](C)(C)C)cc2)C(=O)N[C@@H](Cc2ccc3ccccc3c2)C(=O)NC2(C(=O)N[C@@H](CCCCN(C)C(C)=O)C(=O)N[C@@H](CC(N)=O)C(=O)N[C@@H](Cc3cccnc3)C(=O)N(C)CC(=O)N(C)C)CCOCC2)NC1=O [compound 495, cPEG3aCO-Pen(3)-1-T-7MeW-K(NMeAc)-Pen(3)-TMAPF-2Nal-THP-K(NMeAc)-N-3Pya-Sar-CON(Me)2] ({Me3N+(CH2)2O(CH2)2O(CH2)2CO}-[Pen]LT[Trp(7-Me)][Lys(Me)](Ac)[Pen]Y(X3)[2Nal][Thp][Lys(Me)](Ac)N[3Pal][Sar]-NMe2; disulfide 1-6)	160
CC(=O)NCCCC[C@@H]1NC(=O)[C@H](Cc2c[nH]c3c(C)cccc23)NC(=O)[C@H]([C@@H](C)O)NC(=O)[C@H](CC(N)=O)NC(=O)[C@@H](NC(=O)CCOCCOCC[N+](C)(C)C)C(C)(C)SSC(C)(C)[C@@H](C(=O)N[C@@H](Cc2ccc(OCCCCC[N+](C)(C)C)cc2)C(=O)N[C@@H](Cc2ccc3ccccc3c2)C(=O)NC2(C(=O)N[C@@H](CCC(=O)O)C(=O)N[C@@H](CC(N)=O)C(=O)N[C@@H](Cc3cncc(C)c3)C(=O)N(C)CC(N)=O)CCOCC2)NC1=O [compound 505, cPEG3aCO-Pen(3)-N-T-7MeW-K(Ac)-Pen(3)-TMAPF-2Nal-THP-E-N-5MePyridinAla-Sar-CONH2]	179
